Values after ≈ are worked out from the molar mass of the structure shown. Active and inactive are the calls of the source. The calls are words filed in the database; no cut-off is given here.
How the values were obtained:
[1] = system: Madurella mycetomatis; test: Antifungal activity against Madurella mycetomatis MM55 by XTT assay; type: functional, organism-based
[2] = system: Madurella mycetomatis; test: Antifungal activity against Madurella mycetomatis Peru72012 by XTT assay; type: functional
[3] = system: Madurella mycetomatis; test: Antifungal activity against Madurella mycetomatis MM50 by XTT assay; type: functional
[4] = Selectivity index, ratio of IC50 for mouse NIH3T3 cells to IC50 for Madurella mycetomatis MM55; type: toxicity; conditions: read-out: Ratio IC50
[5] = system: Madurella mycetomatis; test: Antifungal activity against Madurella mycetomatis AL1 by XTT assay; type: functional
[6] = system: Madurella mycetomatis; test: Antifungal activity against Madurella mycetomatis SO1 by XTT assay; type: functional
[7] = system: Madurella mycetomatis; test: Antifungal activity against Madurella mycetomatis P1 by XTT assay; type: functional
[8] = system: Madurella mycetomatis; test: Antifungal activity against Madurella mycetomatis I3 by XTT assay; type: functional
[9] = system: Madurella mycetomatis; test: Antifungal activity against Madurella mycetomatis CBS247.48 by XTT assay; type: functional
[10] = system: Madurella mycetomatis; test: Antifungal activity against Madurella mycetomatis I11 by XTT assay; type: functional
[11] = system: Madurella mycetomatis; test: Antifungal activity against Madurella mycetomatis I1 by XTT assay; type: functional
[12] = Cytotoxicity against mouse NIH3T3 cells incubated for 5 days by MTT assay; type: toxicity, cell-based
[13] = system: Madurella mycetomatis; test: Antifungal activity against Madurella mycetomatis MM55 at 100 uM by XTT assay; type: functional, organism-based
[14] = system: Madurella mycetomatis; test: Antifungal activity against Madurella mycetomatis MM55 at 25 uM by XTT assay; type: functional, organism-based

Row | Structure (SMILES) | IC50 [1] [µM] | MIC [2] [µM] | MIC [3] [µM] | selectivity ratio [4] | MIC [5] [µM] | MIC [6] [µM] | MIC [7] [µM] | MIC [8] [µM] | MIC [9] [µM] | MIC [10] [µM] | MIC [11] [µM] | IC50 at 5 days [12] [µM] | IC50 ([1]; Madurella mycetomatis, MM55) [µM] | MIC ([1]; Madurella mycetomatis, MM55) [µM] | Activity [13] | Activity [14]
1 | CN1CCN(c2cc(-c3cccc4[nH]ccc34)c3nc(-c4ccc(F)cc4)cn3n2)CC1 [listing 1 of 2 here] | 10.6 |  |  |  |  |  |  |  |  |  |  |  |  |  |  | 
2 | OCCN1CCN(c2cc(-c3ccsc3)c3nc(-c4ccccc4F)cn3n2)CC1 |  | 8 (≈ 3.39 µg/mL) | 4 (≈ 1.69 µg/mL) | 4 | 8 (≈ 3.39 µg/mL) | 8 (≈ 3.39 µg/mL) | 8 (≈ 3.39 µg/mL) | 8 (≈ 3.39 µg/mL) | 8 (≈ 3.39 µg/mL) | 4 (≈ 1.69 µg/mL) | 8 (≈ 3.39 µg/mL) | 10.5 | 1.3 | 8 (≈ 3.39 µg/mL) |  | 
3 | OCCN1CCN(c2cc(-c3ccsc3)c3nc(-c4ccc(F)cc4)cn3n2)CC1 |  |  |  |  |  |  |  |  |  |  |  |  | 5.3 |  |  | 
4 | CN1CCN(c2cc(-c3cccc4[nH]ccc34)c3nc(-c4ccccc4)cn3n2)CC1 [listing 1 of 2 here] | 4.8 | 8 (≈ 3.27 µg/mL) | 16 (≈ 6.54 µg/mL) | 2.8 | 16 (≈ 6.54 µg/mL) | 16 (≈ 6.54 µg/mL) | 8 (≈ 3.27 µg/mL) | 16 (≈ 6.54 µg/mL) | 16 (≈ 6.54 µg/mL) | > 16 | 8 (≈ 3.27 µg/mL) | 9.9 |  | 8 (≈ 3.27 µg/mL) |  | 
5 | CN1CCN(c2cc(-c3ccsc3)c3nc(-c4cccc(F)c4)cn3n2)CC1 |  | 8 (≈ 3.15 µg/mL) | 8 (≈ 3.15 µg/mL) | 2.5 | 8 (≈ 3.15 µg/mL) | 8 (≈ 3.15 µg/mL) | 8 (≈ 3.15 µg/mL) | 8 (≈ 3.15 µg/mL) | 8 (≈ 3.15 µg/mL) | 8 (≈ 3.15 µg/mL) | 8 (≈ 3.15 µg/mL) | 11.9 | 2.1 | 8 (≈ 3.15 µg/mL) |  | 
6 | CN1CCN(c2cc(-c3cnc(N4CCN(C)CC4)nc3)c3nc(-c4ccccc4)cn3n2)CC1 |  | 8 (≈ 3.76 µg/mL) | 8 (≈ 3.76 µg/mL) | 16 | 8 (≈ 3.76 µg/mL) | 16 (≈ 7.51 µg/mL) | 8 (≈ 3.76 µg/mL) | 8 (≈ 3.76 µg/mL) | 8 (≈ 3.76 µg/mL) | 8 (≈ 3.76 µg/mL) | 8 (≈ 3.76 µg/mL) | 14.3 | 2 | 2 (≈ 0.939 µg/mL) |  | 
7 | CN1CCN(c2cc(Br)c3nc(-c4ccc(F)cc4)cn3n2)CC1 |  |  |  |  |  |  |  |  |  |  |  |  |  |  | inactive | inactive
8 | CN1CCN(c2cc(-c3ccc4cc[nH]c4c3)c3nc(-c4ccc(F)cc4)cn3n2)CC1 |  |  |  |  |  |  |  |  |  |  |  |  | 7.1 |  |  | 
9 | OCCN1CCN(c2cc(-c3cnc(N4CCN(CCO)CC4)nc3)c3nc(-c4ccccc4F)cn3n2)CC1 |  | 16 (≈ 8.76 µg/mL) | > 16 | 0.8 | > 16 | > 16 | > 16 | > 16 | > 16 | > 16 | 16 (≈ 8.76 µg/mL) | 1.4 | 3.8 | 8 (≈ 4.38 µg/mL) |  | 
10 | CCC(C)n1ncn(-c2ccc(N3CCN(c4ccc(OCC5COC(Cn6cncn6)(c6ccc(Cl)cc6Cl)O5)cc4)CC3)cc2)c1=O (configuration not stated) [ITRACONAZOLE] |  | 0.5 (≈ 0.353 µg/mL) | 1 (≈ 0.706 µg/mL) | 1.4 | 0.06 (≈ 0.0423 µg/mL) | 0.25 (≈ 0.176 µg/mL) | 0.25 (≈ 0.176 µg/mL) | 1 (≈ 0.706 µg/mL) | 2 (≈ 1.41 µg/mL) | 0.5 (≈ 0.353 µg/mL) | 8 (≈ 5.65 µg/mL) | 13.7 | 1.1 | 0.5 (≈ 0.353 µg/mL) |  | 
11 | CN1CCN(c2cc(-c3cnc(N4CCN(C)CC4)nc3)c3nc(-c4ccccc4F)cn3n2)CC1 |  | 4 (≈ 1.95 µg/mL) | 4 (≈ 1.95 µg/mL) | 2 | 4 (≈ 1.95 µg/mL) | 4 (≈ 1.95 µg/mL) | 4 (≈ 1.95 µg/mL) | 16 (≈ 7.8 µg/mL) | 4 (≈ 1.95 µg/mL) | 4 (≈ 1.95 µg/mL) | 4 (≈ 1.95 µg/mL) | 9.6 | 4 | 16 (≈ 7.8 µg/mL) |  | 
12 | CN1CCN(c2cc(-c3cccc4[nH]ccc34)c3nc(-c4ccccc4)cn3n2)CC1 [listing 2 of 2 here] |  |  |  |  |  |  |  |  |  |  |  |  |  |  | Active | Active
13 | CN1CCN(c2cc(-c3ccncc3)c3nc(-c4ccc(F)cc4)cn3n2)CC1 |  |  |  |  |  |  |  |  |  |  |  |  |  |  | Active | inactive
14 | CN1CCN(c2cc(-c3cccc4[nH]ccc34)c3nc(-c4ccc(F)cc4)cn3n2)CC1 [listing 2 of 2 here] | 1.7 | 8 (≈ 3.41 µg/mL) | 8 (≈ 3.41 µg/mL) | 7.5 | 8 (≈ 3.41 µg/mL) | 16 (≈ 6.82 µg/mL) | 8 (≈ 3.41 µg/mL) | 8 (≈ 3.41 µg/mL) | 8 (≈ 3.41 µg/mL) | 8 (≈ 3.41 µg/mL) | 8 (≈ 3.41 µg/mL) | 12.9 |  | 8 (≈ 3.41 µg/mL) |  | 
15 | CN1CCN(c2cc(-c3cnc(N4CCN(C)CC4)nc3)c3nc(-c4cccc(F)c4)cn3n2)CC1 |  | 4 (≈ 1.95 µg/mL) | 4 (≈ 1.95 µg/mL) | 5.5 | 4 (≈ 1.95 µg/mL) | 4 (≈ 1.95 µg/mL) | 4 (≈ 1.95 µg/mL) | 4 (≈ 1.95 µg/mL) | 2 (≈ 0.975 µg/mL) | 4 (≈ 1.95 µg/mL) | 4 (≈ 1.95 µg/mL) | 10.5 | 4.7 | 8 (≈ 3.9 µg/mL) |  | 
16 | CN1CCN(c2cc(-c3cnn(C)c3)c3nc(-c4ccc(F)cc4)cn3n2)CC1 |  |  |  |  |  |  |  |  |  |  |  |  |  |  | Active | Active
17 | CN1CCN(c2cc(-c3cccc4[nH]ccc34)c3nc(-c4cccc(F)c4)cn3n2)CC1 |  | 16 (≈ 6.82 µg/mL) | 8 (≈ 3.41 µg/mL) | 4.8 | 8 (≈ 3.41 µg/mL) | 16 (≈ 6.82 µg/mL) | 8 (≈ 3.41 µg/mL) | 8 (≈ 3.41 µg/mL) | 8 (≈ 3.41 µg/mL) | 8 (≈ 3.41 µg/mL) | 16 (≈ 6.82 µg/mL) | 10.1 | 1.8 | 8 (≈ 3.41 µg/mL) |  | 
18 | CN1CCN(c2cc(-c3ccc4[nH]ccc4c3)c3nc(-c4ccc(F)cc4)cn3n2)CC1 |  | 4 (≈ 1.71 µg/mL) | 4 (≈ 1.71 µg/mL) | 2.6 | 8 (≈ 3.41 µg/mL) | 8 (≈ 3.41 µg/mL) | 8 (≈ 3.41 µg/mL) | 8 (≈ 3.41 µg/mL) | 4 (≈ 1.71 µg/mL) | 4 (≈ 1.71 µg/mL) | 4 (≈ 1.71 µg/mL) | 9 | 3.4 | 16 (≈ 6.82 µg/mL) |  | 
19 | OCCN1CCN(c2cc(-c3cccc4[nH]ccc34)c3nc(-c4ccc(F)cc4)cn3n2)CC1 |  |  |  |  |  |  |  |  |  |  |  |  | > 16 |  |  | 
20 | CN1CCN(c2cc(-c3ccsc3)c3nc(-c4ccc(F)cc4)cn3n2)CC1 |  |  |  |  |  |  |  |  |  |  |  |  |  |  | Active | Active

Source: ChEMBL document CHEMBL5614400, “Emerging therapeutics: The imidazo[1,2-b]pyridazine scaffold as a novel drug candidate for eumycetoma, a neglected tropical disease” (Eur J Med Chem, 2024)
